Measured values taken from patent US20250214932A1, “T-TYPE CALCIUM CHANNEL MODULATORS COMPRISING AN AZASPIRONONANE CORE AND METHODS OF USE THEREOF” (Praxis Precision Medicines, Inc., priority 2022, published 2025).
pIC50: −log10 of the molar value.

Molecular target: Human Cav3.1 (Homo sapiens (Human), UniProt O43497)
Assay: Human Cav3.1 calcium channel patch clamp assay (SyncroPatch 384PE, HEK-293 natClytin/TASK1+Cav3.1 cell line)
Format: cell-based
Conditions: patch clamp, HEK-293 natClytin/TASK1+Cav3.1 cells; class symbols; read-out: Human Cav3.1 IC50
Method: Pulse generation and data collection were performed with PatchController384 V1.3.0 and DataController384 V1.2.1 (Nanion Technologies). Off-line analysis was performed using Excel and Graphpad Prism (V 8.4.2) with complete data files uploaded to Dotmatics. The access resistance and apparent membrane capacitance were estimated using built-in protocols. Current was recorded in whole cell configuration from a population of cells. The cells were lifted, triturated, and resuspended at 800,000 cells/ml. The cells were allowed to recover in the cell hotel prior to experimentation. Currents were recorded at room temperature. The external solution contained the following (in mM): NaCl 80, NMDG 60, KCl 4, MgCl2 1, CaCl2 6, glucose 5 and HEPES 10 (pH=7.4, Osmolarity ˜300 mOsm). The extracellular solution was used as the wash, reference and compound delivery solution. […] The compound plate was created at 2× concentrated in the extracellular solution. The compound was diluted to 1:2 when added to the recording well. The amount of DMSO in the extracellular solution was held constant at the level used for the highest tested concentration. For the voltage clamp experiments on Cav3.1, data were sampled at 10 KHz. After establishment of the seal and the passage in the whole cell configuration, the cells were held at −120 mV. Cav3.1 current was evoked using a 100 ms step to −20 mV (to measure resting state block), followed by a 1600 ms step to −65 mV and a second 100 ms step to −20 mV (to measure voltage dependent block). The voltage protocol was applied every 15 seconds in the absence and in the presence of the compounds under investigation. […] Current amplitude (pA) was measured in the peak 1 and 2. The average of last 3 sweeps of each liquid period (vehicle, compound under investigation, full block) was calculated. Nickel-sensitive current was used to calculate the % of inhibition in the presence of the compound under investigation.
Pulse generation and data collection were performed with PatchController384 V1.3.0 and DataController384 V1.2.1 (Nanion Technologies). Off-line analysis was performed using Excel and Graphpad Prism (V 8.4.2) with complete data files uploaded to Dotmatics. The access resistance and apparent membrane capacitance were estimated using built-in protocols. Current was recorded in whole cell configuration from a population of cells.
The cells were lifted, triturated, and resuspended at 800,000 cells/ml. The cells were allowed to recover in the cell hotel prior to experimentation. Currents were recorded at room temperature. The external solution contained the following (in mM): NaCl 80, NMDG 60, KCl 4, MgCl2 1, CaCl2 6, glucose 5 and HEPES 10 (pH=7.4, Osmolarity ˜300 mOsm). The extracellular solution was used as the wash, reference and compound delivery solution.
The compound plate was created at 2× concentrated in the extracellular solution. The compound was diluted to 1:2 when added to the recording well. The amount of DMSO in the extracellular solution was held constant at the level used for the highest tested concentration. For the voltage clamp experiments on Cav3.1, data were sampled at 10 KHz. After establishment of the seal and the passage in the whole cell configuration, the cells were held at −120 mV. Cav3.1 current was evoked using a 100 ms step to −20 mV (to measure resting state block), followed by a 1600 ms step to −65 mV and a second 100 ms step to −20 mV (to measure voltage dependent block). The voltage protocol was applied every 15 seconds in the absence and in the presence of the compounds under investigation. […] Current amplitude (pA) was measured in the peak 1 and 2. The average of last 3 sweeps of each liquid period (vehicle, compound under investigation, full block) was calculated. Nickel-sensitive current was used to calculate the % of inhibition in the presence of the compound under investigation.

Human Cav3.1, sequence (O43497 whole entry): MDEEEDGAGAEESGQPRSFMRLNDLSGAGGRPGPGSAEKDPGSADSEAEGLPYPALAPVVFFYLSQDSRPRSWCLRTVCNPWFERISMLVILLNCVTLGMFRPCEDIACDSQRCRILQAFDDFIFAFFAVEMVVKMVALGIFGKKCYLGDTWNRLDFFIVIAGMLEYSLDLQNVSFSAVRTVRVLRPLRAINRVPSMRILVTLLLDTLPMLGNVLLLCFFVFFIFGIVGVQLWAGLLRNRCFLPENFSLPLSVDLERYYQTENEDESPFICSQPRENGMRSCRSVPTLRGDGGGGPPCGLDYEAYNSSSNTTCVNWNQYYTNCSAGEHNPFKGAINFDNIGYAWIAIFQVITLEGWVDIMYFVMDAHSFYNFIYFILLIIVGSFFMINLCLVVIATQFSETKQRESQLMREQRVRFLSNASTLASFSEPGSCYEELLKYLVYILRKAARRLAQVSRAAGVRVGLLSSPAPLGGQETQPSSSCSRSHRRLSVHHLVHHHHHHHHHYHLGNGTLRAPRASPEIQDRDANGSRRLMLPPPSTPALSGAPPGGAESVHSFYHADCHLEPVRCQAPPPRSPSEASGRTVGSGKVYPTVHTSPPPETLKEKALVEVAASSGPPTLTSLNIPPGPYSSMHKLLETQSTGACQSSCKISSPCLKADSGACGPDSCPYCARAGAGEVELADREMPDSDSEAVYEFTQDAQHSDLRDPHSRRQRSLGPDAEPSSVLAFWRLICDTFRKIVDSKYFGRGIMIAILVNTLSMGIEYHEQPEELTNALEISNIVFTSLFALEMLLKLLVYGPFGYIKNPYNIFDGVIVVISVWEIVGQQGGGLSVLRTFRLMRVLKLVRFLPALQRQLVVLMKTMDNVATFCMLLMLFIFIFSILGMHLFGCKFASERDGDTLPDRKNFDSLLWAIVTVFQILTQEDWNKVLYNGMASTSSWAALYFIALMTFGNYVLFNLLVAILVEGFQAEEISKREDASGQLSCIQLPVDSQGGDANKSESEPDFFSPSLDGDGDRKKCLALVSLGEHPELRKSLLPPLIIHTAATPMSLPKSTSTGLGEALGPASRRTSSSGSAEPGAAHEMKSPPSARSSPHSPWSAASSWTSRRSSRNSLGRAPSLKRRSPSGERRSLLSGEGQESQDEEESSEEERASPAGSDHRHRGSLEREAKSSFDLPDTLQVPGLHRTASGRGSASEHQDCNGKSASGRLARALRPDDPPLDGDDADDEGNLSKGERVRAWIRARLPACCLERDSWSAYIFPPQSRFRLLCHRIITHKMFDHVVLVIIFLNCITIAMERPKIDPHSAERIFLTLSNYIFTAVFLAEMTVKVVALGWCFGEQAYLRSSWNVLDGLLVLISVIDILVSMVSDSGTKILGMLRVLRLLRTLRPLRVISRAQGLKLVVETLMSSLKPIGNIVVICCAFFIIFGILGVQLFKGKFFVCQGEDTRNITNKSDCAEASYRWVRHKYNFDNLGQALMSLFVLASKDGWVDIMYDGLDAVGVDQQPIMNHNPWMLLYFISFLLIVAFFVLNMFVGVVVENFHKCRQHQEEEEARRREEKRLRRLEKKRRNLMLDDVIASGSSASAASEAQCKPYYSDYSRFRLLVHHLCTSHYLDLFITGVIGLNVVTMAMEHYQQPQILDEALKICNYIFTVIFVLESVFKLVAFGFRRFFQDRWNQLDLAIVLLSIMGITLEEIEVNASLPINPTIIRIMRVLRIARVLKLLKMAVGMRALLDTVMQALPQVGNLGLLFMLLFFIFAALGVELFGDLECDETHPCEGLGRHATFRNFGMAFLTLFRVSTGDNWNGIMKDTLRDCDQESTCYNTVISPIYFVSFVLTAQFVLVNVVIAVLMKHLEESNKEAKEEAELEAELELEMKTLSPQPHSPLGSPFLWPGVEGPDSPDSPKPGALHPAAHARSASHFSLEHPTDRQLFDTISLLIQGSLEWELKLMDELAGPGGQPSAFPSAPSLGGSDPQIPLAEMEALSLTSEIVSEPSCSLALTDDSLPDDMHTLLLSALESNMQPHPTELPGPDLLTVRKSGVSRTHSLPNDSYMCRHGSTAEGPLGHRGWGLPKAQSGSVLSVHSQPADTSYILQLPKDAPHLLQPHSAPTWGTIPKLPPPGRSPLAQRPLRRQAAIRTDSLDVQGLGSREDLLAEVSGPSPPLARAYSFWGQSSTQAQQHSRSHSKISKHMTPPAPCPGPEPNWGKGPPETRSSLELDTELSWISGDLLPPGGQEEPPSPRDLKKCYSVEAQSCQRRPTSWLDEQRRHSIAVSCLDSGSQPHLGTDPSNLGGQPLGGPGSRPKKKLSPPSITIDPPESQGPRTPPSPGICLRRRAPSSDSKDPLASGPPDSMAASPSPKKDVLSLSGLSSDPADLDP

Compound	pIC50
CC(C)(CCN1CC2(CCC(C(=O)Nc3cc(F)cc(C(F)F)c3)CC2)C1)C(F)(F)F [Example 36]	> 6.00
CC(C)(C)NC(=O)CN1CC2(CCC(C(=O)Nc3cccc(Cl)c3)CC2)C1 [Example 2]	> 6.00
CC(C)(C)NC(=O)CN1CC2(CCC(C(=O)Nc3ccc(Cl)cc3)CC2)C1 [Example 3]	> 6.00
O=C(Nc1cc(F)cc(C(F)F)c1)C1CCC2(CC1)CN(CCC1CCC(F)(F)CC1)C2 [Example 37]	> 6.00
COCCNC(=O)CN1CC2(CCC(C(=O)Nc3cc(F)cc(Cl)c3)CC2)C1 [Example 18]	5.00 to 6.00
CN(C(=O)CN1CC2(CCC(C(=O)Nc3cc(F)cc(C(F)F)c3)CC2)C1)C1CCCC1 [Example 35]	> 6.00
Cc1cc(NC(=O)C2CCC3(CC2)CN(CC(=O)NC(C)(C)C)C3)nn1-c1ccccc1 [Example 6]	5.00 to 6.00
O=C(Nc1cc(F)cc(Cl)c1)C1CCC2(CC1)CN(Cc1cccc(C(F)F)c1)C2 [Example 19]	> 6.00
O=C(Nc1cc(F)cc(Cl)c1)C1CCC2(CC1)CN(Cc1ccc(F)cc1)C2 [Example 14]	> 6.00
CC(C)(C)c1coc(CN2CC3(CCC(C(=O)Nc4cc(F)cc(Cl)c4)CC3)C2)n1 [Example 20]	> 6.00
O=C(Nc1cc(F)cc(Cl)c1)C1CCC2(CC1)CN(Cc1cccc(Cl)c1)C2 [Example 23]	> 6.00
O=C(Nc1cc(F)cc(Cl)c1)C1CCC2(CC1)CN(Cc1ccc(Cl)cc1)C2 [Example 11]	5.00 to 6.00

Same assay, conditions: voltage dependent block (VDB); read-out: Cav3.1 (VDB) IC50

Compound	pIC50
Cc1cc(Cl)cc(NC(=O)C2CCC3(CC2)CN(CC2(C#N)CC2)C3)c1 [Example 136]	6.00
CC1(NC(=O)CN2CC3(CCC(C(=O)Nc4cc(F)cc(Cl)c4)CC3)C2)CC1 [Example 59]	6.83
CC(C)(CCN1CC2(CCC(C(=O)Nc3cc(F)cc(C(F)F)c3)CC2)C1)C(F)(F)F [Example 36]	6.49
COc1cc(NC(=O)C2CCC3(CC2)CN(CC(=O)NC(C)(C)C)C3)ccc1F [Example 156]	6.52
CC(C)(C#N)CN1CC2(CCC(C(=O)Nc3cc(F)cc(Cl)c3)CC2)C1 [Example 121]	5.90
CC(C)(C)NC(=O)CN1CC2(CCC(CNC(=O)c3cccc(Cl)c3)CC2)C1 [Example 145]	6.24
CC1(C)CCC(=O)N1CCN1CC2(CCC(C(=O)Nc3cc(F)cc(C(F)F)c3)CC2)C1 [Example 71]	6.23
O=C(CN1CC2(CCC(C(=O)Nc3cc(F)cc(Cl)c3)CC2)C1)OC1CCCC1 [Example 57]	6.15
CC(C)(C)CCN1CC2(CCC(C(=O)NC34CC5CC(CC(C5)C3)C4)CC2)C1 [Example 154]	5.89
O=C(Nc1cccc(Cl)c1)C1CCC2(CC1)CN(CC(F)(F)C1CCCCC1)C2 [Example 101]	6.31
O=C(NC12CCC(CC1)CC2)C1CCC2(CC1)CN(CC1(F)CCC(F)(F)CC1)C2 [Example 149]	6.16
O=C(Nc1cc(F)cc(C(F)F)c1)C1CCC2(CC1)CN(CCS(=O)(=O)c1ccccc1)C2 [Example 80]	6.37
O=C(CN1CC2(CCC(C(=O)Nc3cc(F)cc(Cl)c3)CC2)C1)NC1(C(F)(F)F)CC1 [Example 58]	7.22
CC(C)(C)NC(=O)CN1CC2(CCC(C(=O)Nc3ccc(Cl)cc3)CC2)C1 [Example 3]	6.14
O=C(CN1CC2(CCC(C(=O)Nc3cccc(OC(F)F)c3)CC2)C1)NC1(C(F)(F)F)CC1 [Example 108]	6.44
COc1cc(F)cc(NC(=O)C2CCC3(CC2)CN(CC(F)(F)C2CCCCC2)C3)c1 [Example 90]	6.10
CC(C)(NC(=O)CN1CC2(CCC(C(=O)Nc3cccc(C(F)(F)F)c3)CC2)C1)C(F)(F)F [Example 66]	6.43
COc1cc(F)cc(NC(=O)C2CCC3(CC2)CN(CC2(C#N)CCC(F)(F)CC2)C3)c1 [Example 97]	6.26
O=C(Nc1cc(F)cc(C(F)F)c1)C1CCC2(CC1)CN(CC(=O)N1CCOCC13CC3)C2 [Example 42]	6.15
O=C(Nc1cc(F)cc(C(F)F)c1)C1CCC2(CC1)CN(CCC1CCC(F)(F)CC1)C2 [Example 37]	6.49
COc1cc(NC(=O)C2CCC3(CC2)CN(CC(=O)NC2(C(F)(F)F)CC2)C3)ccc1Cl [Example 158]	6.79
O=C(CN1CC2(CCC(C(=O)Nc3cccc(OC(F)F)c3)CC2)C1)NC1(C(F)(F)F)CCC1 [Example 109]	6.64
O=C(CN1CC2(CCC(C(=O)NC34CCC(CC3)C4)CC2)C1)NC1(C(F)(F)F)CC1 [Example 150]	5.71
CC1(CCN2CC3(CCC(C(=O)Nc4cc(F)cc(C(F)F)c4)CC3)C2)CCC1 [Example 43]	6.52

Compound	pIC50
O=C(Nc1cccc(Cl)c1)C1CCC2(CC1)CN(CCS(=O)(=O)c1ccccc1)C2 [Example 102]	6.30
CC(C)(NC(=O)CN1CC2(CCC(CNC(=O)c3cccc(Cl)c3)CC2)C1)C(F)(F)F [Example 146]	6.36
COc1cc(Cl)cc(NC(=O)C2CCC3(CC2)CN(CC(=O)NC2(C(F)(F)F)CC2)C3)c1 [Example 160]	> 7.11
CN(C(=O)CN1CC2(CCC(C(=O)Nc3cc(F)cc(C(F)F)c3)CC2)C1)C1CCCC1 [Example 35]	6.50
Cc1cc(NC(=O)C2CCC3(CC2)CN(CC(=O)NC(C)(C)C)C3)nn1-c1ccccc1 [Example 6]	5.64
O=C(Nc1cc(F)cc(Cl)c1)C1CCC2(CC1)CN(Cc1cccc(C(F)F)c1)C2 [Example 19]	6.20
O=C(Nc1cc(F)cc(Cl)c1)C1CCC2(CC1)CN(CC(F)(F)C1CCCCC1)C2 [Example 74]	6.03
Cc1cc(NC(=O)C2CCC3(CC2)CN(CC(=O)NC2(C(F)(F)F)CC2)C3)ccc1F [Example 132]	6.40
CC(C)(C)S(=O)(=O)CCN1CC2(CCC(C(=O)Nc3cc(F)cc(Cl)c3)CC2)C1 [Example 95]	6.22
CC1(C(=O)NCCN2CC3(CCC(C(=O)Nc4cc(F)cc(C(F)F)c4)CC3)C2)CC1 [Example 49]	6.14
COc1cc(NC(=O)C2CCC3(CC2)CN(CC(=O)NC(C)(C)C)C3)ccc1Cl [Example 157]	6.89
O=C(Nc1cc(F)cc(Cl)c1)C1CCC2(CC1)CN(Cc1ccc(F)cc1)C2 [Example 14]	6.21
N#CC1(CN2CC3(CCC(C(=O)Nc4cc(Cl)cc(OC(F)F)c4)CC3)C2)CC1 [Example 137]	5.90
CC(C)(C)c1coc(CN2CC3(CCC(C(=O)Nc4cc(F)cc(Cl)c4)CC3)C2)n1 [Example 20]	6.01
O=C(CN1CC2(CCC(C(=O)Nc3cc(F)cc(Cl)c3)CC2)C1)NC1(C(F)F)CC1 [Example 140]	6.55
CC(C)(C)NC(=O)CN1CC2(CCC(C(=O)Nc3cccc(OC(F)F)c3)CC2)C1 [Example 55]	6.53
O=C(CN1CC2(CCC(C(=O)Nc3ccc(Cl)c(F)c3)CC2)C1)NC1(C(F)(F)F)CC1 [Example 120]	5.97
CC(C)(C)NC(=O)CN1CC2(CCC(F)(C(=O)Nc3cc(F)cc(C(F)F)c3)CC2)C1 [Example 51]	6.33
COc1cccc(NC(=O)C2CCC3(CC2)CN(CC(=O)NC(C)(C)C)C3)c1 [Example 75]	5.97
O=C(Nc1cc(F)cc(Cl)c1)C1CCC2(CC1)CN(Cc1cccc(Cl)c1)C2 [Example 23]	6.33
N#CC1(CN2CC3(CCC(C(=O)Nc4cccc(Cl)c4)CC3)C2)CCC(F)(F)CC1 [Example 110]	6.15
CC(C)(C)NC(=O)CN1CC2(CCC(C(=O)Nc3cccc(C(F)F)c3)CC2)C1 [Example 62]	6.29
Cc1cc(F)cc(NC(=O)C2CCC3(CC2)CN(CC(=O)NC2(C(F)(F)F)CC2)C3)c1 [Example 117]	6.66
O=C(CN1CC2(CCC(C(=O)Nc3ccc(F)c(OC(F)F)c3)CC2)C1)NC1(C(F)(F)F)CC1 [Example 124]	6.83
